Our source for the Activity values is ChEMBL document CHEMBL2074328, “Up-regulation of transporters of the MRP family by drugs and toxins” (Toxicol Lett, 2001).

The target in data set [1] is Multidrug resistance associated protein (Homo sapiens) (UniProt Q96QA9). Description: (§1) TP_TRANSPORTER: RT-PCR in HepG2 cells. Type of data set: functional, cell-based.
Data set [2] concerns the target T1, ATP-binding cassette sub-family C member 2 (Homo sapiens, UniProt Q92887). Description: TP_TRANSPORTER: Northern blot from HepG2 cells. It counts as functional, cell-based.
Data set [3] has as its target T2, ATP-binding cassette sub-family C member 2 (Rattus norvegicus, UniProt Q63120). Description: TP_TRANSPORTER: Western blot, primary hepatocytes. It counts as functional, cell-based, Hepatocyte.
Data set [4] deals with T2, ATP-binding cassette sub-family C member 2. Description: TP_TRANSPORTER: Northern blot from primary hepatocytes. It counts as functional, cell-based, Hepatocyte.
Data set [5] concerns the target ATP-binding cassette sub-family C member 5 (Homo sapiens, UniProt O15440). The description is as §1. Type of data set: functional, cell-based.
Data set [6] has as its target T3, Multidrug resistance-associated protein 1 (Homo sapiens, UniProt P33527). Description: TP_TRANSPORTER: Western blot, MCF-7 cells. Type of data set: functional, cell-based. The conditions noted are these: mcf7.
Data set [7] deals with T3, Multidrug resistance-associated protein 1. Description: TP_TRANSPORTER: Northern blot from MCF-7 cells. It counts as functional, cell-based. The conditions noted are these: mcf7.
In data set [8] the target is T1, ATP-binding cassette sub-family C member 2. The description is as §1. Type of data set: functional, cell-based.

Sequence of ATP-binding cassette sub-family C member 5 (O15440 whole entry): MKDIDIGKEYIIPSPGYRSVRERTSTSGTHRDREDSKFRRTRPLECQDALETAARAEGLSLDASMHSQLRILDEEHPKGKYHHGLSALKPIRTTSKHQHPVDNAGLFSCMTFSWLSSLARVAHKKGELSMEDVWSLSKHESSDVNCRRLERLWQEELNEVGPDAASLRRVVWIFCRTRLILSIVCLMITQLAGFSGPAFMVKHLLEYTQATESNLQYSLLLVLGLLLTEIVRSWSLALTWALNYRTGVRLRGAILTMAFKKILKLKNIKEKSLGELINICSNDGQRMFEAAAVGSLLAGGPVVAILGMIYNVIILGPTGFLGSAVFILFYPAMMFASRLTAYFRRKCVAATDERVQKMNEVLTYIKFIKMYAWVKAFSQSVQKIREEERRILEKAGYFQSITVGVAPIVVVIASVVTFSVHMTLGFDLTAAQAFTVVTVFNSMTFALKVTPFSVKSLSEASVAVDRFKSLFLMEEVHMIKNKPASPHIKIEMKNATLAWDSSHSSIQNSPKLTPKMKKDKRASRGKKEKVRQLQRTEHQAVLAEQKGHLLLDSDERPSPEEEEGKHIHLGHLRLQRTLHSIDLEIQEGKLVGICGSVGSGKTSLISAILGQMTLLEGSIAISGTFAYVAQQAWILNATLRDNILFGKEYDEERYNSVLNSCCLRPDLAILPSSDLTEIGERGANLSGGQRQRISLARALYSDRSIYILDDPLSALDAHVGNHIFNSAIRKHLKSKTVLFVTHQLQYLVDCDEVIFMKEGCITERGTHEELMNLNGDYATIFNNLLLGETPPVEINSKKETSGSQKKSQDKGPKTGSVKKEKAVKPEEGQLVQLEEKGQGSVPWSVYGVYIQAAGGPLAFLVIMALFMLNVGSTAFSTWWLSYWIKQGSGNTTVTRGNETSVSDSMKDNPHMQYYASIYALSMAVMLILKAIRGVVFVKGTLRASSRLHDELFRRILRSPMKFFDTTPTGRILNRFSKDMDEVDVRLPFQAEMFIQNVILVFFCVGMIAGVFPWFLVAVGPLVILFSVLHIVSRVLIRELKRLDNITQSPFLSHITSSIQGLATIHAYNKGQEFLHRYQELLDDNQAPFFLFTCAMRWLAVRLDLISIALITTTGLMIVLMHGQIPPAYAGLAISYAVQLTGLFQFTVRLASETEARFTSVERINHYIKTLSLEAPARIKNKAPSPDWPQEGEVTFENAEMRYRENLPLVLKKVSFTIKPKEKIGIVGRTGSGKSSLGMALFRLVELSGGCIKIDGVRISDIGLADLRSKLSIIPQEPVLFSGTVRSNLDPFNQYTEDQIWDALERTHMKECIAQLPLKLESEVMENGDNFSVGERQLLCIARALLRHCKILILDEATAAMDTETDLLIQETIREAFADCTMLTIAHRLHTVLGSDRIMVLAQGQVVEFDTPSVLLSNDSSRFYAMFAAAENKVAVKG
T1 sequence (Q92887 whole entry): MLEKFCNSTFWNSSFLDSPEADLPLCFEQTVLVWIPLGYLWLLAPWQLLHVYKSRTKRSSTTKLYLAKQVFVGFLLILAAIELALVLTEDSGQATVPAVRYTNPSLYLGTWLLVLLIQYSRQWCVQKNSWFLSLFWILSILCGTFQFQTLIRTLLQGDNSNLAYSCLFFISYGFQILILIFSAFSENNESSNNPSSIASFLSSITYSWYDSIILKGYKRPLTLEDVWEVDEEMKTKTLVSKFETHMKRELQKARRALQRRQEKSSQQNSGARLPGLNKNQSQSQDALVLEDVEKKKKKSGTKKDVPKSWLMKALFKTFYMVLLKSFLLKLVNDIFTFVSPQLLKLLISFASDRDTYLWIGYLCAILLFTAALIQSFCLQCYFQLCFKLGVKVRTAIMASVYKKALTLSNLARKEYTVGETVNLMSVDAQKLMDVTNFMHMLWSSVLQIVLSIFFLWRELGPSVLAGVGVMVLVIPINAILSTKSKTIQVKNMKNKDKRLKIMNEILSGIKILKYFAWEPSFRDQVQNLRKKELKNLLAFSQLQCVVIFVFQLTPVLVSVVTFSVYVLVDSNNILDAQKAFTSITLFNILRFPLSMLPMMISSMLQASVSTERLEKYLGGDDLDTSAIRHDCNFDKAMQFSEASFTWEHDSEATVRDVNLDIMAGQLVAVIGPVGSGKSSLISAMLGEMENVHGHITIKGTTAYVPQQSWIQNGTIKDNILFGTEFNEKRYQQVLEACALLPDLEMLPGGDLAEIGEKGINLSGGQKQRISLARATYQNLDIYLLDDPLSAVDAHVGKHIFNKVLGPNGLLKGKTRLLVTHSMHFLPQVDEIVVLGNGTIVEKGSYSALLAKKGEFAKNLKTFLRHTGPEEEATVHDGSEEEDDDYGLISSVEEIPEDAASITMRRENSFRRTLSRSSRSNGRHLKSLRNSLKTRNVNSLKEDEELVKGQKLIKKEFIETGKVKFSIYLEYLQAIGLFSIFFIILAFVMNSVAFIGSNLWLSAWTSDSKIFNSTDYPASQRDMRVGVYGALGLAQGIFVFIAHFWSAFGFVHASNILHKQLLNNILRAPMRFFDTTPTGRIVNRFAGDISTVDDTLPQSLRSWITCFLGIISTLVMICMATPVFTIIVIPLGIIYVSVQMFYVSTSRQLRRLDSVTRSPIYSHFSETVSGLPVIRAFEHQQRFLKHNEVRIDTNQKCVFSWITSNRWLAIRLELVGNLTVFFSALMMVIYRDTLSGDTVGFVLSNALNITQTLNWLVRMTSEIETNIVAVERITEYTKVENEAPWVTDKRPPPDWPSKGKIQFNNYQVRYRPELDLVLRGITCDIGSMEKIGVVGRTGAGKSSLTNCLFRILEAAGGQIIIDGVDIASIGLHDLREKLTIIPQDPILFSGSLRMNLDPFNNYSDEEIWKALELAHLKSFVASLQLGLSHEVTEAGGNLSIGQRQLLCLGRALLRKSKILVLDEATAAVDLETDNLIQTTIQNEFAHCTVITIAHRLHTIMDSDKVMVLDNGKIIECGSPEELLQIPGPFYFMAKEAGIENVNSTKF
T3 sequence (P33527 whole entry): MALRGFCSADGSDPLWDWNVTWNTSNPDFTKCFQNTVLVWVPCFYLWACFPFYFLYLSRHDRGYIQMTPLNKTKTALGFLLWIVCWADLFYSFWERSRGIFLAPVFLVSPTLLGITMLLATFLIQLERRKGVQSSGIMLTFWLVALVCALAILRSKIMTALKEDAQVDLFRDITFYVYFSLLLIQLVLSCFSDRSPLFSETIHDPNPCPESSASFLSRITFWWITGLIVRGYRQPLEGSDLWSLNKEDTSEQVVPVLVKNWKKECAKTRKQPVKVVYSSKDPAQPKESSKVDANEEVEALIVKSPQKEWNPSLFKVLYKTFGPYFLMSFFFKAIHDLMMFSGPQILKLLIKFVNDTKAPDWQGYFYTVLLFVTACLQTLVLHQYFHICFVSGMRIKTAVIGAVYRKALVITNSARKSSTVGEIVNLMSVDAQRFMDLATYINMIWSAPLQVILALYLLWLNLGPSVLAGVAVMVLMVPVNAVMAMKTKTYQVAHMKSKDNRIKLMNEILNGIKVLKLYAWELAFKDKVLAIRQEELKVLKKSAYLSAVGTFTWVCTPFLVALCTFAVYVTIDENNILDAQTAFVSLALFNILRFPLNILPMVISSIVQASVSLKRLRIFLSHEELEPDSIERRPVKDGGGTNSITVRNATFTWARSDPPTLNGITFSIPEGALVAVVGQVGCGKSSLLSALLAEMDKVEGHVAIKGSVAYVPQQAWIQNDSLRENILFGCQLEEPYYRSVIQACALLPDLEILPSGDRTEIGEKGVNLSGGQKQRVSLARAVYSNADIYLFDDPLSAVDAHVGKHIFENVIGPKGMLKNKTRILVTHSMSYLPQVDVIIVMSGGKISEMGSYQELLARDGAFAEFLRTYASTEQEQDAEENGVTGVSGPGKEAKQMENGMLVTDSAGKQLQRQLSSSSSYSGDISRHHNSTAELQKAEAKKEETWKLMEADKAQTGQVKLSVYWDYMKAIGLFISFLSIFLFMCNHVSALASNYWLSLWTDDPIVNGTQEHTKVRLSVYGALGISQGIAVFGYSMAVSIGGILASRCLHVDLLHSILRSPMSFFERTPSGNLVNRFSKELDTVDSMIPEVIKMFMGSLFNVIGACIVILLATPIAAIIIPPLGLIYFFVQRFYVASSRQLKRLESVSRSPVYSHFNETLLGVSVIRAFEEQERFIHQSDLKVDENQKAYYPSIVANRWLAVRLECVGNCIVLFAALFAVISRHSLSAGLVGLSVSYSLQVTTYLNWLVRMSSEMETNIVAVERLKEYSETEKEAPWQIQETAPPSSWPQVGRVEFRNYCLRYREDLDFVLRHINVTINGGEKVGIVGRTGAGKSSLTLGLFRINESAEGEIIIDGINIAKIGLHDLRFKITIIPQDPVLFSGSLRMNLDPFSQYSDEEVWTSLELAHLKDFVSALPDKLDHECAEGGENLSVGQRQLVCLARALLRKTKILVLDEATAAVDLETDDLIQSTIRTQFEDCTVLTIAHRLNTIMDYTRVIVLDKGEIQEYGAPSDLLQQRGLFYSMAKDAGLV

For `CC(=O)Nc1ccc2c(c1)Cc1ccccc1-2` [2-ACETYLAMINOFLUORENE], the Activity result in data set [1], in data set [2], in data set [3], in data set [4] and in data set [5] was “inducer [+]” in each case.

For the molecule `C[C@@H]1C[C@H]2[C@@H]3CCC4=CC(=O)C=C[C@]4(C)[C@@]3(F)[C@@H](O)C[C@]2(C)[C@@]1(O)C(=O)CO` [DEXAMETHASONE], the Activity result in data set [3] and in data set [4] was “inducer [+]” throughout.

On to `CC(C)(C)c1cc(O)ccc1O` [E319], for which the Activity result in data set [6] and in data set [7] was “inducer [+]” each time.

As for `CCC1(c2ccccc2)C(=O)NC(=O)NC1=O` [PHENOBARBITAL], the Activity entry in data set [2] is “inducer [+]”.

For the molecule `CO[C@H]1/C=C/O[C@@]2(C)Oc3c(C)c(O)c4c(O)c(c(/C=N/N5CCN(C)CC5)c(O)c4c3C2=O)NC(=O)/C(C)=C\C=C\[C@H](C)[C@H](O)[C@@H](C)[C@@H](O)[C@@H](C)[C@H](OC(C)=O)[C@@H]1C` [RIFAMPIN], the Activity entry in data set [5] is “inducer [+]”.

In the case of `CC[C@]1(O)C[C@@H]2CN(CCc3c([nH]c4ccccc34)[C@@](C(=O)OC)(c3cc4c(cc3OC)N(C)[C@H]3[C@@](O)(C(=O)OC)[C@H](OC(C)=O)[C@]5(CC)C=CCN6CC[C@]43[C@@H]65)C2)C1` [VINBLASTINE], the Activity entry in data set [6], in data set [3], in data set [4] and in data set [7] was “inducer [+]” throughout.

For the molecule CISPLATIN [listing 1 of 2 here], the Activity result in data set [3], in data set [4], in data set [8] and in data set [5] was “inducer [+]” each time.

Turning to CISPLATIN [listing 2 of 2 here], the Activity result in data set [1] was “inducer [+]”.
